Values joined by “and” are separate entries in the source; they are usually repeats but may differ in a detail not shown here. Equal entries are not always repeated.
Experiments:
human A2BAR [1] = target: T1, human A2BAR (Homo sapiens, UniProt P29275); assay: [3H]PSB-603 radioligand washout assay on membranes; type: binding; settings: 10 × IC50, 2 hr pre-incubation, 4x washed, 25 °C
T1 construct: host or cells: CHO-spap
T1 sequence (P29275 1-332): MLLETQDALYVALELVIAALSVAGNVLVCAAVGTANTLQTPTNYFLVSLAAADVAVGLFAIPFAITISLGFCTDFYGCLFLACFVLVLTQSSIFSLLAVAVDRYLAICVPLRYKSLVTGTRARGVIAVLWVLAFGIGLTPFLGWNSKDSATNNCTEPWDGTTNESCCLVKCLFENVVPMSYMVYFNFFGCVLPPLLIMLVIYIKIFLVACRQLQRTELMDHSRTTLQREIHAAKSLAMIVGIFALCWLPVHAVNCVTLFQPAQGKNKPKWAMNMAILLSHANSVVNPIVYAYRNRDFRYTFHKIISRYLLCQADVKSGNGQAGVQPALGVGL
Experimental: Were performed at 25 °C and in a total volume of 400 μL. […] Subsequently, the samples were centrifuged at 13200 rpm (16 100g) at 4 °C for 5 min and the supernatant containing unbound ligand was removed. Pellets were resuspended in 1 mL of assay buffer, and samples were incubated for 10 min at 25 °C in the thermomixer. After four centrifugation and washing cycles in total, supernatant was discarded and the membranes were resuspended in a total volume of 400 μL containing 1.5 nM [^3H]PSB-603. After 2 hr at 25 °C incubations were terminated by rapid filtration through GF/C filters using a Brandel harvester and the samples were obtained as described under “Saturation binding experiments”.
Both the washed and the unwashed conditions were assessed. For the washed condition, the unlabeled compounds were incubated with the target for 2 hr, followed by four wash and centrifugation cycles. Subsequently, [^3H]PSB-603 was co-incubated which led to competition of the radioligand with the unlabeled ligand still bound after the washing procedure. For the unwashed condition no washing was performed before the determination of radioligand displacement. Based on the experimental set-up, the long RT compound and the covalent ligand would be predicted to remain bound to A2BARs, as they would not be easily removed during the washing steps, and thus to result in lower radioligand binding.

[2] = target: T2, hA2BAR (CHO-spap-hA2BAR cells) (Homo sapiens, UniProt P29275); assay: Label-free whole-cell washout assay; type: cell-based; settings: 30 × IC50 antagonist 4 hr, NECA EC80, control without antagonist = 100%
T2 construct: host or cells: CHO-spap
T2 sequence (P29275 1-332): T1 sequence (P29275 1-332)
Experimental: The assay followed the same initial steps as described in “Determination of pIC50 values for hA2BAR antagonists”. […] Subsequently, wells were washed by aspiration of the medium, followed by the addition of 95 μL fresh serum free medium. For the unwashed cells, the medium was not removed but was pipetted up and down to simulate any mechanical cell stress.
Data were analyzed using GraphPad Prism 8.0.
Subsequently, a washout assay was performed and the cell response to the compounds was monitored and evaluated (Fig. 7). […] For the evaluation of the unwashed condition, the medium was not refreshed but was pipetted up and down in order to mimic the possible mechanical stress induced to the washed cells.

human A2BAR [3] = target: T1, human A2BAR; assay: [3H]PSB-603 competition association assay; type: binding; settings: for RT: RT = 1/koff, competing ligand at 1.0-fold IC50, up to 3 hr, 25 °C; for Kd: read-out: Kinetic KD (koff/kon); for koff: read-out: koff (converted); for kon: read-out: kon (converted)
Experimental: In all radioligand binding experiments, CHO-spap-hA2BAR membranes were thawed and homogenized using an Ultra Turrax homogenizer at 24,000 rpm (IKA-Werke GmbH & Co.KG, Staufen, Germany), diluted in assay buffer to the desired concentration (10–30 μg per well or Eppendorf tube). All materials were brought to 25 °C, 30 min prior to the experiment. ZM241385 (10 μM) was used to determine nonspecific binding (NSB).
Addition of CHO-spap-hA2BAR membrane aliquots initiated the association. The amount of receptor-bound radioligand was determined at different time points up to 3 hr. After 3 hr the incubation was terminated and samples were obtained as described under “Displacement experiments”.
All competition association data were globally fitted.

human A2BAR [4] = target: T1, human A2BAR; assay: [3H]PSB-603 displacement on CHO-spap-hA2BAR membranes; type: binding; settings: […] [3H]PSB-603, 2 h, 25 °C; read-out: Ki (converted)
A2A adenosine receptor [5] = target: A2A adenosine receptor (Homo sapiens, UniProt P29274); assay: Radioligand binding, human A2A ([3H]CGS21680, HEK-293); settings: HEK-293, [3H]CGS21680
A1 adenosine receptor [6] = target: T3, A1 adenosine receptor (Homo sapiens, UniProt P30542); assay: Radioligand binding, human A1 ([3H]R-PIA, HEK-293); settings: HEK-293, [3H]R-PIA
T3 sequence (P30542 1-326): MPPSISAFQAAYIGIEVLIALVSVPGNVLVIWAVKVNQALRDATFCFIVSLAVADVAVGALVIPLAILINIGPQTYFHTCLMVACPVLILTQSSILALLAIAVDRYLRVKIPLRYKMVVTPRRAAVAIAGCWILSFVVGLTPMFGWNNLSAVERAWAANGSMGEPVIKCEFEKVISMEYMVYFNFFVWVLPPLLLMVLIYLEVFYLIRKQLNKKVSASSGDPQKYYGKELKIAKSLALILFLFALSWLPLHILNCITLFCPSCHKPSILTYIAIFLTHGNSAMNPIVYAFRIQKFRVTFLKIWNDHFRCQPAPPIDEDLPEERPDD
Description: (§1) The A2B receptor selectivity was generally low, especially at the rat A2B receptor.

A3 adenosine receptor = target: T4, A3 adenosine receptor (Homo sapiens, UniProt P0DMS8); assay: Radioligand binding, human A3 ([125I]I-AB-MECA, HEK-293); settings: HEK-293, [125I]I-AB-MECA
T4 sequence (P0DMS8 1-318): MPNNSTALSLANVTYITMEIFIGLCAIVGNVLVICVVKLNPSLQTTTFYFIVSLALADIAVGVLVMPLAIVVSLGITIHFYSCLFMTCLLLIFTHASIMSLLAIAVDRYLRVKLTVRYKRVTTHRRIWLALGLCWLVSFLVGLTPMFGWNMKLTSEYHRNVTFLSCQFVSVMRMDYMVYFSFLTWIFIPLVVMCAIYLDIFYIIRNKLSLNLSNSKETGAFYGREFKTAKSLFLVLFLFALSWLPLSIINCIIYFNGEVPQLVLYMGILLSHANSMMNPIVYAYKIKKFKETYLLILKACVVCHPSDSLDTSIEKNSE
Description: as §1

A2B adenosine receptor [7] = target: T5, A2B adenosine receptor (Rattus norvegicus, UniProt P29276); assay: Radioligand binding, rat A2B ([125I]I-ABOPX, HEK-293); settings: rat (r), HEK-293, [125I]I-ABOPX
T5 sequence (P29276 1-332): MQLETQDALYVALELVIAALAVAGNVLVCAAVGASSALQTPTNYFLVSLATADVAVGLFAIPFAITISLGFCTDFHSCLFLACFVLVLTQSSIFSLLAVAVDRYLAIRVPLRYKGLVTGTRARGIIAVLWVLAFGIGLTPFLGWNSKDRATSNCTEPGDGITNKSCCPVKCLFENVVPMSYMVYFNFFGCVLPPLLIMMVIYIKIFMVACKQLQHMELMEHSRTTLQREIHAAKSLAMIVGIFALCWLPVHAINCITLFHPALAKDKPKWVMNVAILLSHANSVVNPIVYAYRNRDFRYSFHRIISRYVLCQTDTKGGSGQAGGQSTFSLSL

A1 adenosine receptor [8] = target: T6, A1 adenosine receptor (Rattus norvegicus, UniProt P25099); assay: Radioligand binding, rat A1 ([3H]R-PIA, HEK-293); settings: HEK-293, [3H]R-PIA
T6 sequence (P25099 1-326): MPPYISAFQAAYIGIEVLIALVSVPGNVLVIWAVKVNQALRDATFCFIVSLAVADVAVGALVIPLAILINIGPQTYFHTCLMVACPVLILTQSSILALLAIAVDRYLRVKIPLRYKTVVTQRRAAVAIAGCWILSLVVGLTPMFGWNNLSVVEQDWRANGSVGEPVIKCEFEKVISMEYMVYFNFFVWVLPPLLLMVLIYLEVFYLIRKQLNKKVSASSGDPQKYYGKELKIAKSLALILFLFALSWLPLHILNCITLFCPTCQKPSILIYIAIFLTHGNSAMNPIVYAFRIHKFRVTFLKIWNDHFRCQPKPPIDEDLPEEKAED
Description: as §1

A2B adenosine receptor [9] = target: T7, A2B adenosine receptor (Homo sapiens, UniProt P29275); assay: Radioligand binding, human A2B ([125I]I-ABOPX, HEK-293); settings: HEK-293, [125I]I-ABOPX
T7 sequence (P29275 1-332): T1 sequence (P29275 1-332)

A2A adenosine receptor [10] = target: A2A adenosine receptor (Rattus norvegicus, UniProt P30543); assay: Radioligand binding, rat A2A ([3H]CGS21680, HEK-293); settings: rat (r), HEK-293, [3H]CGS21680
Sequence of A2A adenosine receptor (Rattus norvegicus, UniProt P30543) (P30543 whole entry): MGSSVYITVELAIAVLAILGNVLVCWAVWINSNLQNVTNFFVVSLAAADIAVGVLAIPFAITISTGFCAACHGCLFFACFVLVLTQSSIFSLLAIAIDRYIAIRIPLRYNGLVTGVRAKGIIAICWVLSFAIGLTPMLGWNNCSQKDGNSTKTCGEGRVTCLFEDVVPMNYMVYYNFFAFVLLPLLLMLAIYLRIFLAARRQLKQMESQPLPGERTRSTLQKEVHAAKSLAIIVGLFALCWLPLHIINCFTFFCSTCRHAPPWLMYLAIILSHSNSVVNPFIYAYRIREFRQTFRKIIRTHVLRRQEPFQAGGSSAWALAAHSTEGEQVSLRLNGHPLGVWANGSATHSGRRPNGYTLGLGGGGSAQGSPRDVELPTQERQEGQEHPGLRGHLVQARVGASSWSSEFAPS

Sequence of A2A adenosine receptor (Homo sapiens, UniProt P29274) (P29274 whole entry): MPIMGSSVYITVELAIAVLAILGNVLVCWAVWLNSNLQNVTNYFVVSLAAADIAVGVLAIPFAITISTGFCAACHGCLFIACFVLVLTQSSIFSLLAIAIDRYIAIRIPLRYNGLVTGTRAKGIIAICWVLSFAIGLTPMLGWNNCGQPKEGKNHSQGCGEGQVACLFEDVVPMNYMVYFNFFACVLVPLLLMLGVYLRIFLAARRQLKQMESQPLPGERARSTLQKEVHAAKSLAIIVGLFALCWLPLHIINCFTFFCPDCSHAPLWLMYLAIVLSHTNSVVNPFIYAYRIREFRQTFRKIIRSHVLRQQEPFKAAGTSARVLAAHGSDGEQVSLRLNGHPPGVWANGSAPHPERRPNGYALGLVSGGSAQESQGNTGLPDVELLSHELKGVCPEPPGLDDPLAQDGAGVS

| A2BARs still occupied by ligand after the washing cycles (human A2BAR [1]) | compound removed (washed away) during the washing procedure (human A2BAR [1]) | washout - %AUC, 1x washed (NECA signaling) [2] | washout - %AUC, unwashed (NECA signaling) [2] | RT (human A2BAR [3]) | Kd (human A2BAR [3]) | koff (human A2BAR [3]) | kon (human A2BAR [3]) | Ki (human A2BAR [4]) | Ki (A2A adenosine receptor [5]) | Ki (A1 adenosine receptor [6]) | Ki (A3 adenosine receptor) | Ki (A2B adenosine receptor [7]) | Ki (A1 adenosine receptor [8]) | Ki (A2B adenosine receptor [9]) | Ki (A2A adenosine receptor [10]) | Structure (SMILES) |
| --- | --- | --- | --- | --- | --- | --- | --- | --- | --- | --- | --- | --- | --- | --- | --- | --- |
| 44% | 56% | 19 ± 6% | 10 ± 3% | 87 min and 87 ± 29 min | 1.8 ± 0.62 nM | 0.000183 s⁻¹ | 100000 M⁻¹ s⁻¹ | 2.29 nM |  |  |  |  |  |  |  | CCCn1c(=O)c2[nH]c(-c3ccc(OCC(=O)Nc4ccc(C(=O)OC)cc4)cc3)nc2n(CCC)c1=O [Compound 17] |
|  | 85% | 68 ± 7% | 12 ± 1% | 8 min and 8.0 min and 8.0 ± 0.2 min | 10 ± 0.89 nM | 0.00208 s⁻¹ | 200000 M⁻¹ s⁻¹ | 19.9 nM |  |  |  |  |  |  |  | CCCn1c(=O)c2[nH]c(-c3ccc(OCC(=O)Nc4ccc(C(=O)NC)cc4)cc3)nc2n(CCC)c1=O [Compound 18] |
|  |  |  |  |  | 3.8 ± 1.7 nM | 0.0011 s⁻¹ | 283000 M⁻¹ s⁻¹ | 3.6 nM | 33.6 ± 0.1 nM | 63.9 ± 16.5 nM | 89.9 ± 11.6 nM | 20 nM | 6.55 nM | 5.5 ± 1.2 nM | 251 nM | CCCn1c(=O)c2[nH]c(-c3ccc(OCC(=O)NCc4ccc(F)cc4)cc3)nc2n(CCC)c1=O [Compound 21, 2-(4-(2,6-dioxo-1,3-dipropyl-2,3,6,7-tetrahydro-1H-purin-8-yl)phenoxy)-N-(4-fluorobenzyl)acetamide] |

Source: PMC9358681 (Biochemical pharmacology, 2022)
